{"source": "PubChem BioAssay (NCI)", "test_in_all_cases": "NCI anticancer screen, dose series, 48 h", "key": {"NCI-H23 lung": {"system": "NCI-H23 lung"}, "NCI-H460 lung": {"system": "NCI-H460 lung"}, "NCI-H522 lung": {"system": "NCI-H522 lung"}, "NCI/ADR-RES ovarian": {"system": "NCI/ADR-RES ovarian"}, "OVCAR-3 ovarian": {"system": "OVCAR-3 ovarian"}, "OVCAR-4 ovarian": {"system": "OVCAR-4 ovarian"}, "OVCAR-5 ovarian": {"system": "OVCAR-5 ovarian"}, "OVCAR-8 ovarian": {"system": "OVCAR-8 ovarian"}, "PC-3 prostate": {"system": "PC-3 prostate"}, "RPMI-8226 leukemia": {"system": "RPMI-8226 leukemia"}, "RXF 393 renal": {"system": "RXF 393 renal"}, "SF-268 CNS": {"system": "SF-268 CNS"}, "SF-295 CNS": {"system": "SF-295 CNS"}, "SF-539 CNS": {"system": "SF-539 CNS"}, "SK-MEL-2 melanoma": {"system": "SK-MEL-2 melanoma"}, "SK-MEL-28 melanoma": {"system": "SK-MEL-28 melanoma"}, "SK-MEL-5 melanoma": {"system": "SK-MEL-5 melanoma"}, "SK-OV-3 ovarian": {"system": "SK-OV-3 ovarian"}, "SN12C renal": {"system": "SN12C renal"}, "SNB-19 CNS": {"system": "SNB-19 CNS"}, "SNB-75 CNS": {"system": "SNB-75 CNS"}, "SR leukemia": {"system": "SR leukemia"}, "SW-620 colon": {"system": "SW-620 colon"}, "T-47D breast": {"system": "T-47D breast"}, "TK-10 renal": {"system": "TK-10 renal"}, "U251 CNS": {"system": "U251 CNS"}, "UACC-257 melanoma": {"system": "UACC-257 melanoma"}, "UACC-62 melanoma": {"system": "UACC-62 melanoma"}, "UO-31 renal": {"system": "UO-31 renal"}}, "note": "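Compound exposure: 48 hours, 5 concentrations, 96-well plates. GI50 = concentration required for 50% inhibition of growth. At the TGI there is no net growth.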"}
{"compound": "COc1ccc2nc3cc(Cl)ccc3c(Nc3cc(C(C)C)c(O)cc3C)c2c1", "values": [{"measurement": "GI50", "setting": "NCI-H23 lung", "result": 2200, "unit": "nM"}, {"measurement": "TGI", "setting": "NCI-H23 lung", "result": 6020, "unit": "nM"}, {"measurement": "GI50", "setting": "NCI-H460 lung", "result": 1710, "unit": "nM"}, {"measurement": "TGI", "setting": "NCI-H460 lung", "result": 3450, "unit": "nM"}, {"measurement": "GI50", "setting": "NCI-H522 lung", "result": 1790, "unit": "nM"}, {"measurement": "TGI", "setting": "NCI-H522 lung", "result": 3650, "unit": "nM"}, {"measurement": "GI50", "setting": "NCI/ADR-RES ovarian", "result": 2760, "unit": "nM"}, {"measurement": "TGI", "setting": "NCI/ADR-RES ovarian", "result": 8010, "unit": "nM"}, {"measurement": "GI50", "setting": "OVCAR-3 ovarian", "result": 1690, "unit": "nM"}, {"measurement": "TGI", "setting": "OVCAR-3 ovarian", "result": 3260, "unit": "nM"}, {"measurement": "GI50", "setting": "OVCAR-4 ovarian", "result": 2500, "unit": "nM"}, {"measurement": "TGI", "setting": "OVCAR-4 ovarian", "result": 9460, "unit": "nM"}, {"measurement": "GI50", "setting": "OVCAR-5 ovarian", "result": 3030, "unit": "nM"}, {"measurement": "TGI", "setting": "OVCAR-5 ovarian", "result": 9480, "unit": "nM"}, {"measurement": "GI50", "setting": "OVCAR-8 ovarian", "result": 2060, "unit": "nM"}, {"measurement": "TGI", "setting": "OVCAR-8 ovarian", "result": 4470, "unit": "nM"}, {"measurement": "GI50", "setting": "PC-3 prostate", "result": 1700, "unit": "nM"}, {"measurement": "TGI", "setting": "PC-3 prostate", "result": 4790, "unit": "nM"}, {"measurement": "GI50", "setting": "RPMI-8226 leukemia", "result": 663, "unit": "nM"}, {"measurement": "TGI", "setting": "RPMI-8226 leukemia", "result": 2680, "unit": "nM"}, {"measurement": "GI50", "setting": "RXF 393 renal", "result": 1280, "unit": "nM"}, {"measurement": "TGI", "setting": "RXF 393 renal", "result": 2900, "unit": "nM"}, {"measurement": "GI50", "setting": "SF-268 CNS", "result": 2350, "unit": "nM"}, {"measurement": "TGI", "setting": "SF-268 CNS", "result": 6860, "unit": "nM"}, {"measurement": "GI50", "setting": "SF-295 CNS", "result": 1360, "unit": "nM"}, {"measurement": "TGI", "setting": "SF-295 CNS", "result": 3010, "unit": "nM"}, {"measurement": "GI50", "setting": "SF-539 CNS", "result": 1810, "unit": "nM"}, {"measurement": "TGI", "setting": "SF-539 CNS", "result": 3610, "unit": "nM"}, {"measurement": "GI50", "setting": "SK-MEL-2 melanoma", "result": 1850, "unit": "nM"}, {"measurement": "TGI", "setting": "SK-MEL-2 melanoma", "result": 3750, "unit": "nM"}, {"measurement": "GI50", "setting": "SK-MEL-28 melanoma", "result": 1910, "unit": "nM"}, {"measurement": "TGI", "setting": "SK-MEL-28 melanoma", "result": 4050, "unit": "nM"}, {"measurement": "GI50", "setting": "SK-MEL-5 melanoma", "result": 1610, "unit": "nM"}, {"measurement": "TGI", "setting": "SK-MEL-5 melanoma", "result": 3100, "unit": "nM"}, {"measurement": "GI50", "setting": "SK-OV-3 ovarian", "result": 2390, "unit": "nM"}, {"measurement": "TGI", "setting": "SK-OV-3 ovarian", "result": 6880, "unit": "nM"}, {"measurement": "GI50", "setting": "SN12C renal", "result": 2550, "unit": "nM"}, {"measurement": "TGI", "setting": "SN12C renal", "result": 7420, "unit": "nM"}, {"measurement": "GI50", "setting": "SNB-19 CNS", "result": 2970, "unit": "nM"}, {"measurement": "TGI", "setting": "SNB-19 CNS", "result": 12700, "unit": "nM"}, {"measurement": "GI50", "setting": "SNB-75 CNS", "result": 2160, "unit": "nM"}, {"measurement": "TGI", "setting": "SNB-75 CNS", "result": 7610, "unit": "nM"}, {"measurement": "GI50", "setting": "SR leukemia", "result": 703, "unit": "nM"}, {"measurement": "TGI", "setting": "SR leukemia", "result": 12000, "unit": "nM"}, {"measurement": "GI50", "setting": "SW-620 colon", "result": 1770, "unit": "nM"}, {"measurement": "TGI", "setting": "SW-620 colon", "result": 3370, "unit": "nM"}, {"measurement": "GI50", "setting": "T-47D breast", "result": 1920, "unit": "nM"}, {"measurement": "TGI", "setting": "T-47D breast", "result": 4680, "unit": "nM"}, {"measurement": "GI50", "setting": "TK-10 renal", "result": 1750, "unit": "nM"}, {"measurement": "TGI", "setting": "TK-10 renal", "result": 6650, "unit": "nM"}, {"measurement": "GI50", "setting": "U251 CNS", "result": 1790, "unit": "nM"}, {"measurement": "TGI", "setting": "U251 CNS", "result": 3530, "unit": "nM"}, {"measurement": "GI50", "setting": "UACC-257 melanoma", "result": 1350, "unit": "nM"}, {"measurement": "TGI", "setting": "UACC-257 melanoma", "result": 3070, "unit": "nM"}, {"measurement": "GI50", "setting": "UACC-62 melanoma", "result": 1720, "unit": "nM"}, {"measurement": "TGI", "setting": "UACC-62 melanoma", "result": 3500, "unit": "nM"}, {"measurement": "GI50", "setting": "UO-31 renal", "result": 1490, "unit": "nM"}, {"measurement": "TGI", "setting": "UO-31 renal", "result": 2980, "unit": "nM"}]}
